Data from PubChem BioAssay (NCI).
Where “and” joins values, the source holds several entries; their conditions need not be identical. Equal entries are not always repeated.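 A five-concentration, 48-hour dose response in 96-well plates underlies each endpoint, interpolated linearly between surrounding concentrations. Abbreviation: GI50, concentration required for 50% inhibition of growth. Definition used: TGI = concentration required for complete inhibition of growth.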

Experiments:
Assay in all cases: NCI tumour cell line growth inhibition, 48 h
SK-MEL-5 melanoma = test system: SK-MEL-5 melanoma
SR leukemia = test system: SR leukemia
IGROV1 ovarian = test system: IGROV1 ovarian
MALME-3M melanoma = test system: MALME-3M melanoma
SF-268 CNS = test system: SF-268 CNS
UO-31 renal = test system: UO-31 renal
LOX IMVI melanoma = test system: LOX IMVI melanoma
HCC-2998 colon = test system: HCC-2998 colon
UACC-257 melanoma = test system: UACC-257 melanoma

| Structure (SMILES) | TGI (SK-MEL-5 melanoma) | TGI (SR leukemia) [µM] | TGI (IGROV1 ovarian) | TGI (MALME-3M melanoma) | TGI (SF-268 CNS) | TGI (UO-31 renal) | GI50 (LOX IMVI melanoma) | TGI (LOX IMVI melanoma) | GI50 (SK-MEL-5 melanoma) | GI50 (MALME-3M melanoma) | GI50 (SF-268 CNS) | GI50 (HCC-2998 colon) | TGI (HCC-2998 colon) | GI50 (UACC-257 melanoma) | TGI (UACC-257 melanoma) | GI50 (IGROV1 ovarian) [µM] | GI50 (UO-31 renal) [µM] | GI50 (SR leukemia) [µM] |
| --- | --- | --- | --- | --- | --- | --- | --- | --- | --- | --- | --- | --- | --- | --- | --- | --- | --- | --- |
| CCCCN(CCCC)c1c([N+](=O)[O-])c(=O)nc2ccccn12 | > 100 µM | > 100 | > 100 µM | > 100 µM | > 100 µM | 94 µM |  |  |  |  |  |  |  |  |  |  |  |  |
| COc1cc2ncnc(Nc3ccc(F)c(Cl)c3)c2cc1NC(=O)/C=C/CN1CCCCC1 | 3.13 µM and 3.06 µM |  | 2.96 µM and 2.07 µM | 3.31 µM and 3.09 µM | 3.99 µM and 4.73 µM | 2.23 µM and 1.99 µM | 1.75 µM and 1.69 µM | 3.27 µM and 3.24 µM | 1.61 µM and 1.66 µM | 1.73 µM and 1.61 µM | 1.5 µM and 1.42 µM | 1.97 µM and 1.75 µM | 4.38 µM and 4.29 µM | 1.66 µM and 1.79 µM | 3.39 µM and 3.51 µM |  |  |  |
| COC(=O)c1nc(Cl)nc(Cl)c1Cl | 35.1 µM | 58.7 | 66 µM | 45.9 µM | > 100 µM | 35.7 µM |  | 29.6 µM |  |  |  |  | 68.3 µM |  |  |  |  |  |
| OCCNc1ncnc2c1ncn2Cc1cccc(COc2cccc(OCc3cccc(Cn4cnc5c(NCCO)ncnc54)c3)c2)c1 | 31 µM |  | 37.4 µM | 38.3 µM | 32.7 µM | 56.6 µM | 14.5 µM | 30.1 µM | 16.7 µM | 17.2 µM | 16.4 µM | 15.1 µM | 33.6 µM | 18.4 µM | 36.1 µM | 12.9 | 23.1 |  |
| Cn1c2c(c3ccc(Cl)c(Cl)c31)C(C#N)C1(CCNCC1)NC2=O (stereo not given) | 2.91 µM |  | 3.83 µM | 3.19 µM | 4.89 µM | 4.46 µM | 1.54 µM | 3.39 µM | 1.5 µM | 1.42 µM | 1.77 µM | 1.31 µM | 2.69 µM | 1.75 µM | 3.69 µM | 1.66 | 1.23 |  |
| O=c1cccc(C2CC(CO)C3CCCCN3C2)[nH]1 (stereo not given) | > 100 µM |  | > 100 µM |  | > 100 µM | > 100 µM |  | > 100 µM |  |  |  |  | > 100 µM |  | > 100 µM |  |  |  |
| CCN(CC)C(=S)SC | > 100 µM |  | > 100 µM | > 100 µM | > 100 µM |  |  | > 100 µM |  |  |  |  | > 100 µM |  | > 100 µM |  |  |  |
| CN(C)/N=C(/c1nc2ccc(Cl)cc2[nH]c1=O)C(O)c1ccc(C(O)/C(=N\N(C)C)c2nc3ccc(Cl)cc3[nH]c2=O)cc1 (stereo not given) | > 100 µM | > 100 | > 100 µM | > 100 µM | > 100 µM | > 100 µM |  |  |  |  |  |  | > 100 µM |  | > 100 µM |  |  |  |
| CCOC(=O)/C=C/C1=C(c2cccs2)c2ccccc2CC1 | 31.8 µM |  | 94.9 µM | 69.7 µM | > 100 µM | > 100 µM | 15.9 µM | 30 µM | 16.8 µM | 24.8 µM | 30.2 µM | 28.2 µM | 64.7 µM | 21.2 µM | 53.7 µM | 26.7 | 33.5 |  |
| C/C(=N\N(c1ccccc1)c1ccccc1)c1c(O)cc(C)oc1=O |  | > 100 |  | > 100 µM | > 100 µM | > 100 µM |  | > 100 µM |  |  |  |  | > 100 µM |  | > 100 µM |  |  |  |
| O=C1C(c2ccccc2)=[N+]([O-])c2ccccc21 | 23.3 µM | 23.5 |  | 38.5 µM | 27.4 µM | 29.7 µM |  | 14.2 µM |  |  |  |  | 38.8 µM |  | 26.1 µM |  |  |  |
| Cc1cc(S(=O)(=O)NC#N)c(S/C(=N\Nc2ccc([N+](=O)[O-])cc2)c2ccc(Cl)cc2)cc1Cl | 42.3 µM |  | > 100 µM | 96.3 µM | > 100 µM | > 100 µM | 30.1 µM | > 100 µM | 18.5 µM | 24.4 µM | 26 µM |  |  | > 100 µM | > 100 µM | > 100 | 34 |  |
| Cc1cc(Cl)ccc1Nc1nc(C(F)(F)F)ccc1C(=O)N/N=C/c1ccc([N+](=O)[O-])cc1 | 4.08 µM |  | 12.9 µM | 7.09 µM | 5.45 µM | 6.93 µM | 1.16 µM |  | 1.87 µM | 1.68 µM | 0.86 µM | 1.43 µM | 4.28 µM | 1.38 µM | 5.11 µM | 2.21 | 1.48 |  |
| Cc1nc2sccn2c1-c1csc(Nc2cccc(Cl)c2C)n1 | 3.92 µM | 53.1 | 73.2 µM |  | 74.4 µM | 23.7 µM | 6.5 µM | 20.6 µM | 1.52 µM |  | 11.9 µM | 10.4 µM | 40.7 µM | 2.52 µM | 12.5 µM | 8.83 | 3.05 | 3.46 |
| COC1OC(CO)C(O)C1N (stereo not given) | > 100 µM | > 100 | > 100 µM | > 100 µM | > 100 µM |  |  | > 100 µM |  |  |  |  |  |  | > 100 µM |  |  |  |
